Laboratory results: US20240041877A1, “DOSAGE REGIME AND METHOD FOR TREATING PULMONARY ARTERIAL HYPERTENSION” (Altavant Sciences GmbH, priority 2019, published 2024)

Test: Part 2 (MAD): plasma pharmacokinetics after BID oral KAR5585 for 14 days (incl. accumulation ratios and dose proportionality)
Conditions: for RAUC0-12 / RCmax: Cohort 1, Day 14/Day 1 accumulation ratio
[1] = 100 mg (Cohort 2) to 400 mg (Cohort 4), 4-fold increase in dose, fed
[2] = 100 mg KAR5585 BID, fasted, Cohort 1
[3] = 100 mg KAR5585 BID, fasted, Part 2 Cohort 1, mean
[4] = 100 mg KAR5585 BID, fed, Cohort 2
[5] = 100 mg KAR5585 BID, fed, Part 2 Cohort 2, mean
[6] = KAR5585 100 mg BID fasted, Cohort 1, Day 1 AM, geo. mean
[7] = KAR5585 100 mg BID fasted, Cohort 1, Day 1 AM, mean
[8] = KAR5585 100 mg BID fasted, geo. mean
[9] = KAR5585 100 mg BID fasted, mean
[10] = KAR5585 100 mg BID fasted, Cohort 1, Day 14, geo. mean
[11] = KAR5585 100 mg BID fasted, Cohort 1, Day 14, mean
[12] = KAR5585 100 mg BID fed, Cohort 2, Day 1 AM, geo. mean
[13] = KAR5585 100 mg BID fed, Cohort 2, Day 1 AM, mean
[14] = KAR5585 100 mg BID fed, Cohort 2, Day 1 PM, geo. mean
[15] = KAR5585 100 mg BID fed, Cohort 2, Day 1 PM, mean

From the text: Food effect was to be evaluated in Part 1, Period 2.
Pharmacokinetic data were to be summarized descriptively.

Nc1nc(O[C@H](c2ccc(Cl)cc2-c2ccccc2)C(F)(F)F)cc(N2CCC3(CC2)CN[C@H](C(=O)O)C3)n1 [KAR5417, (S)-8-(2-amino-6-((R)-1-(5-chloro-[1,1T-biphenyl]-2-yl)-2,2,2-trifluoroeth-oxy)pyrimidin-4-yl)-2,8-diazaspiro[4.5]decane-3-carboxylic acid]
fold increase in mean AUC0-12, Day 1 [1]: 7.0 fold | fold increase in mean AUC0-12, Day 14 [1]: 4.6 fold | fold increase in mean AUC0-24, Day 1 [1]: 6.45 fold | fold increase in mean AUC0-24, Day 14 [1]: 4.45 fold | fold increase in mean Cmax, Day 1 [1]: 6.9 fold | fold increase in mean Cmax, Day 14 [1]: ~4.5 fold | RAUC0-12 (accumulation ratio for AUC0-12), range Day 7/Day 1 and Day 14/Day 1 (100 mg KAR5585 BID): 2.19-2.57 | half-life, Day 14 (100 mg KAR5585 BID, fasted): 18.8 h | peak mean concentration of KAR5417 relative to KAR5585, Day 1 [2]: approximately 7.25 fold | peak mean concentration of KAR5417 relative to KAR5585, Day 14 [2]: ~9.1 fold | time peak plasma concentrations were reached, Day 1 [2]: 2.0 to 6.0 h | AUC0-12, Day 1 [3]: 741 ng·h/mL | AUC0-24, Day 14 [3]: 1650 ng·h/mL | mean apparent elimination half-life, Day 14 (100 mg KAR5585 BID, fed): 19.6 h | Cmax (peak mean concentration), Day 1 [4]: 85.9 ng/mL | Cmax (peak mean concentration), Day 14 [4]: 168 ng/mL | mean Cmax plasma concentrations, range on all dosing days [4]: 85.9 to 168 ng/mL | AUC0-12, Day 1 [5]: 470 ng·h/mL | AUC0-24, Day 14 [5]: 1220 ng·h/mL | RAUC0-12 (accumulation ratio for AUC0-12), range Day 7/Day 1 and Day 14/Day 1 (200 mg KAR5585 BID): 1.09-1.34 | mean apparent elimination half-life, Day 14 (200 mg KAR5585 BID, fed): 25.0 h | RAUC0-12 (accumulation ratio for AUC0-12), range Day 7/Day 1 and Day 14/Day 1 (400 mg KAR5585 BID): 1.65-2.38 | mean apparent elimination half-life, Day 14 (400 mg KAR5585 BID, fed): 30.6 h | steady-state plasma levels achieved by (BID oral KAR5585 for 14 days): ≤ 7 days | AUC0-12 [6]: 643 ng·h/mL | AUC0-∞ [6]: 769 ng·h/mL | C12 [6]: 19.5 ng/mL | Cmax [6]: 101 ng/mL | Cmax/D [6]: 1.01 (ng/ml)/mg | t1/2 [6]: 3.37 h | AUC0-12 [7]: 741 ng·h/mL | AUC0-∞ [7]: 876 ng·h/mL | C12 [7]: 21.3 ng/mL | Cmax/D [7]: 1.21 (ng/ml)/mg | t1/2 [7]: 3.43 h | RAUC0-12 [8]: 1.64 | RCmax [8]: 1.75 | RAUC0-12 [9]: 1.83 | RCmax [9]: 2.56 | AUC0-12 [10]: 1150 ng·h/mL | AUC0-24 [10]: 1490 ng·h/mL | AUC0-24/D [10]: 14.9 (hr*ng/ml)/mg | AUC0-∞ [10]: 1960 ng·h/mL | C12 [10]: 42.0 ng/mL | C24 [10]: 18.1 ng/mL | Cmax [10]: 177 ng/mL | Cmax/D [10]: 1.77 (ng/ml)/mg | t1/2 [10]: 17.6 h | AUC0-12 [11]: 1280 ng·h/mL | AUC0-24 [11]: 1650 ng·h/mL | AUC0-24/D [11]: 16.5 (hr*ng/ml)/mg | AUC0-∞ [11]: 2220 ng·h/mL | C12 [11]: 46.3 ng/mL | Cmax/D [11]: 1.94 (ng/ml)/mg | t1/2 [11]: 18.8 h | AUC0-12 [12]: 428 ng·h/mL | AUC0-∞ [12]: 516 ng·h/mL | C12 [12]: 15.4 ng/mL | Cmax [12]: 79.2 ng/mL | Cmax/D [12]: 0.792 (ng/ml)/mg | t1/2 [12]: 4.16 h | AUC0-12 [13]: 470 ng·h/mL | AUC0-∞ [13]: 564 ng·h/mL | C12 [13]: 17.2 ng/mL | Cmax [13]: 85.9 ng/mL | Cmax/D [13]: 0.859 (ng/ml)/mg | t1/2 [13]: 4.18 h | AUC0-12 [14]: 714 ng·h/mL | AUC0-24/D [14]: 5.78 (hr*ng/ml)/mg | AUC0-∞ [14]: 1090 ng·h/mL | C12 [14]: 39.5 ng/mL | Cmax [14]: 119 ng/mL | Cmax/D [14]: 1.19 (ng/ml)/mg | t1/2 [14]: 6.95 h | AUC0-12 [15]: 748 ng·h/mL | AUC0-24 [15]: 1220 ng·h/mL | AUC0-24/D [15]: 6.09 (hr*ng/ml)/mg
